Reference: patent US4666936A, “Amide derivatives of 2-(p-aminobenzyl)-butyric acid and esters thereof having hypolipidemizing activity” (Medosan Industrie Biochimiche Riunite S.p.A., priority 1984, dated 1987)
“Also recorded” adds a separate entry of the source.

Assays:
[1] = tested on: hematic levels of triglycerides and total cholesterol; experiment: Hypolipidemizing activity in mouse made hyperlipidemic by Triton WR-1339; type: in vivo, mouse (Swiss); details: 500 mg/kg per os; for Total cholesterol, % mg / Triglycerides, % mg: serum after 18 hours fasting; for Total cholesterol, % variation / Triglycerides, % variation: vs carrier
Experimental: (§1) The preparations administered "in vivo" by oral route, comprise a 0.5% suspension of carboxymethylcellulose in a neutral pH normal physiological saline for the compounds (3), (4) and (5), while for the compounds (2) and (6) the preparation comprises a solution in NaOH (0.1N) at pH 7-7.5. The hypolipidemizing activity of the substances under test was evaluated as the ability to decrease the hematic levels of triglycerides and total cholesterol in animals made hyperlipidemic by administration of Triton (antihyperlipidemic agents, J. N. Moss, Screening Methods in Pharmacology,Ed. Robert A. Turner and P. Hebborn, volume II, Academic Press, pages 121-143). The test was carried out on two animal species: rat and mouse. Male Wistar rats and Swiss mice were used, held at a normal diet, the former weighing 200-260 g, the latter weighing about 26-30 g. The compounds (2), (3), (4), (5) and (6) and the Bezafibrate and Clofibrate of control were administered per os at a dose of 500 mg/kg, simultaneously with a 10% solution in normal saline of Triton WR-1339 endoperitoneally at a rate of 2 ml/kg body weight. After treatment, the animals were divided into lots of eight, and held fasting for 18 hours and then sacrificed. The hematic levels of triglycerides total cholesterol are measured on the serum by enzymatic methods (Test-Combination Triglycerides, Boehring Mannheim GmbH) and colorimetric methods (Test-Combination Cholesterol, Boehring Mannheim GmbH). The results on the hypolipidemizing activity of the compounds under test in rat and mouse are referred in tables I and II.

[2] = tested on: hematic levels of cholesterol and triglycerides; experiment: Pharmacological tests of hypolipidemizing activity, overall statements; type: in vivo, rat and mouse; details: compared with Bezafibrate and Clofibrate
Experimental: as §1

[3] = Acute toxicity (DL50) in mouse, oral route; details: in vivo, oral (os), 15 days observation
Experimental: DL50 was evaluated after administration of the compounds (2), (3), (4), (5) and (6) alone in male albine Swiss mice weighing 27±3 g, using the oral route. The animals were held under observation by checking the mortality and pain signs, if any, for 15 days.
The DL50 values (mg/kg) are referred in table III.

[4] = tested on: hematic levels of triglycerides and total cholesterol; experiment: Hypolipidemizing activity in rat made hyperlipidemic by Triton WR-1339; type: in vivo, rat (male Wistar); details: 500 mg/kg per os; for Total cholesterol, % mg / Triglycerides, % mg: serum after 18 hours fasting; for Total cholesterol, % variation / Triglycerides, % variation: vs carrier
Experimental: as §1

[5] = tested on: hepatic enzymes involved in the biosynthesis de novo of the triglycerides; details: literature, appears to occur possibly; cited from earlier work
[6] = tested on: cholesterol and triglycerides; details: literature, prior art; cited from earlier work
[7] = tested on: cholesterol; details: literature, appears to occur possibly; cited from earlier work
[8] = mouse, os; value as reported in literature: G. Metz et al, Arzneimittel Forschung, 27: 1173; 1977; cited from earlier work

CCC(Cc1ccc(NC(=O)c2ccccc2C(=O)O)cc1)C(=O)O (stereo not shown) [Compound (6), 2-(p-phthalylaminobenzyl)-butyric acid]
Total cholesterol, % mg [1]: 130 % mg | Triglycerides, % mg [1]: 64 % mg | Total cholesterol, % variation [1]: -38% | Triglycerides, % variation [1]: -56% | hypocholesterolemizing and hypolipidemizing activity (in words) [2]: interesting ability to decrease the hematic levels of cholesterol and triglycerides; also recorded: particularly high hypocholesterolemizing and hypolipidemizing activity | LD50 [3]: > 2000 mg/kg | Total cholesterol, % mg [4]: 180 % mg | Triglycerides, % mg [4]: 380 % mg | Total cholesterol, % variation [4]: -32% | Triglycerides, % variation [4]: -28%

CC(=O)c1ccccc1N1C(=O)c2ccccc2C1=O [o-(N-phthalimido)acetophenone]
inhibiting activity in vivo on hepatic enzymes [5]: inhibiting activity in vivo | hypolipidemizing activity (in words) [6]: more active than Clofibrate in reducing the serum cholesterol percentage and the triglyceride level | cholesterol absorption at the intestinal level [7]: decrease the cholesterol absorption at the intestinal level | excretion of cholesterol with the bile [7]: speed up the excretion of cholesterol with the bile

CC(C)(Oc1ccc(CCNC(=O)c2ccc(Cl)cc2)cc1)C(=O)O [Bezafibrate, reference compound]
Total cholesterol, % mg [1]: 139 % mg | Triglycerides, % mg [1]: 100 % mg | Total cholesterol, % variation [1]: -33% | Triglycerides, % variation [1]: -32% | Total cholesterol, % mg [4]: 210 % mg | Triglycerides, % mg [4]: 415 % mg | Total cholesterol, % variation [4]: -22% | Triglycerides, % variation [4]: -20% | hypolipidemizing activity (in words) [6]: ability to decrease the hematic levels of cholesterol and triglycerides

CCOC(=O)C(CC)Cc1ccc(NC(=O)Cc2ccc(-n3cccc3)cc2)cc1 (stereo not shown) [Compound (5), 2-{4-[4-(1-pyrryl)-phenylacetamido]-benzyl}-butyric acid ethyl ester]
Total cholesterol, % mg [1]: 130 % mg | Triglycerides, % mg [1]: 80 % mg | Total cholesterol, % variation [1]: -38% | Triglycerides, % variation [1]: -45% | hypocholesterolemizing and hypolipidemizing activity (in words) [2]: interesting ability to decrease the hematic levels of cholesterol and triglycerides; also recorded: particularly high hypocholesterolemizing and hypolipidemizing activity | LD50 [3]: > 2000 mg/kg | Total cholesterol, % mg [4]: 205 % mg | Triglycerides, % mg [4]: 410 % mg | Total cholesterol, % variation [4]: -24% | Triglycerides, % variation [4]: -21%

CCOC(=O)C(CC)Cc1ccc(N2C(=O)c3ccccc3C2=O)cc1 (stereo not shown) [Compound (3), 2-(p-phthalimidobenzyl)-butyric acid ethyl ester]
Total cholesterol, % mg [1]: 140 % mg | Triglycerides, % mg [1]: 64 % mg | Total cholesterol, % variation [1]: -33% | Triglycerides, % variation [1]: -56% | hypocholesterolemizing and hypolipidemizing activity (in words) [2]: interesting ability to decrease the hematic levels of cholesterol and triglycerides; also recorded: particularly high hypocholesterolemizing and hypolipidemizing activity | LD50 [3]: > 1700 mg/kg | Total cholesterol, % mg [4]: 189 % mg | Triglycerides, % mg [4]: 390 % mg | Total cholesterol, % variation [4]: -30% | Triglycerides, % variation [4]: -25%

CCOC(=O)C(CC)Cc1ccc(NC(=O)c2ccc(Cl)cc2)cc1 (stereo not shown) [Compound (4), 2-[4-(p-chlorobenzamido)-benzyl]-butyric acid ethyl ester]
Total cholesterol, % mg [1]: 129 % mg | Triglycerides, % mg [1]: 90 % mg | Total cholesterol, % variation [1]: -38% | Triglycerides, % variation [1]: -39% | hypocholesterolemizing and hypolipidemizing activity (in words) [2]: interesting ability to decrease the hematic levels of cholesterol and triglycerides; also recorded: particularly high hypocholesterolemizing and hypolipidemizing activity | LD50 [3]: > 2000 mg/kg | Total cholesterol, % mg [4]: 200 % mg | Triglycerides, % mg [4]: 400 % mg | Total cholesterol, % variation [4]: -26% | Triglycerides, % variation [4]: -23%

Cc1ccc(C)n1-c1ccc(CC(=O)Nc2nccs2)cc1
hypolipidemizing activity (in words) [6]: hypolipidemizing activity lower than that of Bezafibrate

O=C1NC(=O)c2ccccc21 [phthalimide]
hypolipidemizing activity (in words) [6]: hypocholesterolemizing activity

CCC(Cc1ccc(N2C(=O)c3ccccc3C2=O)cc1)C(=O)O (stereo not shown) [Compound (2), 2-(p-phthalimidobenzyl)-butyric acid]
Total cholesterol, % mg [1]: 130 % mg | Triglycerides, % mg [1]: 60 % mg | Total cholesterol, % variation [1]: -38% | Triglycerides, % variation [1]: -59% | hypocholesterolemizing and hypolipidemizing activity (in words) [2]: interesting ability to decrease the hematic levels of cholesterol and triglycerides; also recorded: particularly high hypocholesterolemizing and hypolipidemizing activity | LD50 [3]: > 2000 mg/kg | Total cholesterol, % mg [4]: 176 % mg | Triglycerides, % mg [4]: 360 % mg | Total cholesterol, % variation [4]: -35% | Triglycerides, % variation [4]: -31%

CCOC(=O)C(C)(C)Oc1ccc(Cl)cc1 [Clofibrate, reference compound]
DL50 [8]: 1280 mg/kg | Total cholesterol, % mg [1]: 152 % mg | Triglycerides, % mg [1]: 115 % mg | Total cholesterol, % variation [1]: -27% | Triglycerides, % variation [1]: -22% | Total cholesterol, % mg [4]: 218 % mg | Triglycerides, % mg [4]: 420 % mg | Total cholesterol, % variation [4]: -19% | Triglycerides, % variation [4]: -19% | hypolipidemizing activity (in words) [6]: ability to decrease the hematic levels of cholesterol and triglycerides

CC(C)OC(=O)C(C)(C)Oc1ccc(C(=O)c2ccc(Cl)cc2)cc1 [Procetofene]
hypolipidemizing activity (in words) [6]: hypolipidemizing activity lower than that of Bezafibrate
